# Patent publication US20110039763A1, “TARGETED ANTIMICROBIAL MOIETIES” (C3 JIAN, INC., priority 2009, published 2011)
# “Also recorded” adds a separate entry of the source.
# What was measured:
# microorganisms [1] = assay: Targeting peptide binding to target microorganisms (Tables 3, 10, 12); details: microorganism(s) the targeting peptide binds; binding in aqueous buffers that varied with peptide solubility, preferably 1x PBS
# microorganisms [2] = assay: Peptide activities: targeting/binding, antimicrobial, growth or phenotype altering (Tables 7, 8); type: cell-based; details: peptides having multiple activities
# microorganisms [3] = assay: Morphology, biofilm and growth disrupting peptides (Table 5); type: cell-based; design: key: A: Peptide aggregates; B: Less hyphal formation; Clumps; Diffuse clumps and small polyps; F: Diffuse growth; H: Thin; I: Growth inhibition; Microcolony formation; Rippled; Small polyps; Thick; W: Halo formation on top, microlonies on bottom
# Excerpt: In certain embodiments peptides that induce alterations in phenotype or other biological activities can also be used as antimicrobial effector moieties.
Substance,Target(s) (microorganisms [1]),Activities (microorganisms [2]),"Organism, effect: B. subtilis (microorganisms [3]; B. subtilis)","Organism, effect: C. jejuni (microorganisms [3]; C. jejuni)","Organism, effect: S. epidermidis (microorganisms [3])","Organism, effect: C. jeikeium (microorganisms [3])","Organism, effect: M. luteus (microorganisms [3])","Organism, effect: MRSA (microorganisms [3])","Organism, effect: S. mutans (microorganisms [3]; S. mutans, class symbol)","Organism, effect: S. pneumoniae (microorganisms [3]; S. pneumoniae)"
PF-008: peptide having multiple activities (MIEIGSIAYLNGGSKKYNHILNQENR; Peptide with targeting and/or antimicrobial activity),S. epidermidis and M. luteus and MRSA and C. jejuni,G B,B. subtilis (D),C. jejuni (R),,,,,,
PF-009: peptide having multiple activities (SKKYNHILNQENR; Peptide with targeting and/or antimicrobial activity),M. luteus; also recorded: P. mirabilis; also recorded: C. albicans,G B,,,S. epidermidis (S),,,,,
PF-010: peptide having multiple activities (MDIDVNKLLQAFVYFKSFEKLRHNNS; Peptide with targeting and/or antimicrobial activity),S. epidermidis; also recorded: M. luteus; also recorded: E. coli; also recorded: C. albicans,G B,,,S. epidermidis (S),C. jeikeium (A),M. luteus (A),MRSA (R),,
PF-011: peptide having multiple activities (MFCYYKQHKGDNFSIEEVKNIIADNEMKVN; Peptide with targeting and/or antimicrobial activity),M. luteus; also recorded: E. coli; also recorded: P. aeruginosa; also recorded: S. pneumoniae; also recorded: C. jeikeium,G B,,,,C. jeikeium (C),,MRSA (R),,
PF-015: peptide having multiple activities (SIDKRNLYNLKYYE; Peptide with targeting and/or antimicrobial activity),E. faecalis; also recorded: C. jeikeium,G B,,,,,,MRSA (W),,
PF-017: peptide having multiple activities (ESIIE; Peptide with targeting and/or antimicrobial activity),E. coli,G B,,,,,,MRSA (M),,
PF-020: peptide having multiple activities (MKIILLLFLIFGFIVVVTLKSEHQLTLFSI; Peptide with targeting and/or antimicrobial activity),S. epidermidis and M. luteus and C. albicans and MRSA and S. pneumoniae and E. faecalis,G B,,,S. epidermidis (C),,M. luteus (C),MRSA (C),S. mutans (F),S. pneumoniae (D)
PF-021: peptide having multiple activities (FSLNFSKQKYVTVN; Peptide with targeting and/or antimicrobial activity),S. epidermidis; also recorded: M. luteus; also recorded: P. mirabilis; also recorded: E. coli; also recorded: C. albicans; also recorded: E. faecalis; also recorded: C. jeikeium,G B,,,S. epidermidis (A),C. jeikeium (R),M. luteus (A),MRSA (R),,
PF-024: peptide having multiple activities (DLRKAK; Peptide with targeting and/or antimicrobial activity),M. luteus and C. albicans and MRSA and E. faecalis and C. jeikeium,G B,,,S. epidermidis (D),,,MRSA (M),,
PF-025: peptide having multiple activities (LLIIFRLWLELKWKNKK; Peptide with targeting and/or antimicrobial activity),S. epidermidis and M. luteus and P. mirabilis and E. coli and P. aeruginosa and MRSA and E. faecalis and C. jejuni,G B,,,S. epidermidis (S),C. jeikeium (A),M. luteus (A),MRSA (R),,
PF-026: peptide having multiple activities (SIHFIN; Peptide with targeting and/or antimicrobial activity),S. epidermidis and M. luteus and P. mirabilis and C. albicans and MRSA and E. faecalis and C. jeikeium,G B,,,,,,MRSA (M),,
PF-027: peptide having multiple activities (HNARKYLEFISQKIDGDKLTKEDSL; Peptide with targeting and/or antimicrobial activity),M. luteus and MRSA and E. faecalis and C. jejuni,G B,,,S. epidermidis (D),,,MRSA (M),,
PF-029: peptide having multiple activities (NSTNE; Peptide with targeting and/or antimicrobial activity),S. epidermidis; also recorded: M. luteus; also recorded: C. albicans; also recorded: C. jejuni,G B,,,,,,MRSA (M),,
PF-031: peptide having multiple activities (MPHHSTTSSRIVVPAHQSNMASTPNLSITP; Peptide with targeting and/or antimicrobial activity),M. luteus; also recorded: C. albicans,G B,,,,,,MRSA (M),,
PF-034: peptide having multiple activities (EPKKKHFPKMESASSEP; Peptide with targeting and/or antimicrobial activity),M. luteus,G B,,,S. epidermidis (A),,,,,
PF-035: peptide having multiple activities (SFYESY; Peptide with targeting and/or antimicrobial activity),S. epidermidis and M. luteus and E. coli and C. albicans and MRSA and C. jeikeium and C. jejuni,G B,,,,,,MRSA (M),,
PF-036: peptide having multiple activities (ILNRLSRIVSNEVTSLIYSLK; Peptide with targeting and/or antimicrobial activity),S. epidermidis and M. luteus and P. mirabilis and E. coli and C. albicans and MRSA and S. pneumoniae and C. jejuni,G B,,,S. epidermidis (S),C. jeikeium (A),M. luteus (A),MRSA (R),,
PF-041: peptide having multiple activities (ELLVILPGFI; Peptide with targeting and/or antimicrobial activity),MRSA,G B,,,S. epidermidis (R),,,MRSA (M),,
PF-043: peptide having multiple activities (MIKNETAYQMNELLVIRSAYAK; Peptide with targeting and/or antimicrobial activity),M. luteus; also recorded: C. jejuni,G B,,,S. epidermidis (D),C. jeikeium (A),M. luteus (C),MRSA (R),,
PF-045: peptide having multiple activities (LDINDYRSTY; Peptide with targeting and/or antimicrobial activity),S. epidermidis; also recorded: E. coli; also recorded: E. faecalis; also recorded: C. jejuni,G B,,,,,,MRSA (S),,
PF-046: peptide having multiple activities (LDFYLTKHLTLML; Peptide with targeting and/or antimicrobial activity),E. coli; also recorded: E. faecalis; also recorded: C. jeikeium,G B,,,S. epidermidis (C),C. jeikeium (R),,MRSA (R),,
